How the values were obtained:
[1] = test system: H1975 xenograft tumors; experiment: Xenografted human NSCLC (H1975) tumors in nude mice; format: in vivo; conditions: 30 mg/kg once per four days
Excerpt: The results were obtained from twelve mice and the bar represents the mean±S.E.M.**p<0.01, indicating significant difference between control and SP101 treatment group mice. ###p<0.001 indicates significant differences between SP101 and Gefitinib-treated mice.
The tumor weight was means±*p<0.05 indicating significant differences between control and SP101 treatment group mice. #p<0.05 indicates significant differences between SP101 and Gefitinib-treated mice.
NSCLC tumors in nude mice were established. Seven-week-old nude mice were subcutaneously injected with 3×10^6 H1975 cells. Please refer to FIGS. 7 and 8. After 7 to 10 days inoculation, the nude mice were treated with vehicle or 30 mg/kg SP101 or 30 mg/kg Gefitinib once per four days and tumor sizes in the nude mice were measured every four days. The nude mice were sacrificed after treatment for 16 days; the tumors were harvested to measure tumor volume/weight and further analyze tumor tissues. […] Please refer to FIG. 9.

[2] = test system: Survivin and cleaved-form Caspase 3 in H1975 cells; experiment: Western blot and immunofluorescence of Survivin and cleaved Caspase 3 in H1975 cells; format: cell-based, human
Excerpt: (§1) FIG. 5 is a result of immunofluorescence staining and confocal microscopy. The green color indicated location of Survivin protein excited with 488 nm. The β-tubulin protein was stained with Cy3-labeled mouse anti-β-tubulin antibody (red color). The fluorescence intensity of β-tubulin was excited with 543 nm and the emission was collected in range of 560-580 nm. Blue color indicated location of nuclei following stained with Hoechst 33258 and was excited with 405 nm and the emission was collected in range of 415-450 nm. Overlapping localization is shown in the merged images.
as §1, with “FIG. 6” for “FIG. 5”, “of cleaved Caspase 3” for “of Survivin”
Reduction of Survivin protein expression has shown to inhibit tumor growth in NSCLC. Please refer to FIG. 4. H1975 cells with EGFR (T790M) mutation were treated with or without SP101 (20˜30 μM for 24 hours) and analyzed by Western blot. […] Actin was an internal control protein.
Further, immunofluorescence staining and confocal microscopy were utilized to determine the expression and cell morphology of Survivin and cleaved-form Caspase 3 after treatment with SP101 in H1975 cells with EGFR (T790M) mutation. The cells were treated with or without 30 μM of SP101 for 24 hours. At the end of treatment, the cells were fixed with 4% paraformaldehyde at 37 °C for 1 hour. The fixed cells were incubated with rabbit anti-Survivin antibody or rabbit anti-cleaved caspase-3 antibody at 4 °C overnight. Then the cells were stained with goat anti-rabbit IgG Dylight 488 at 37 °C for 1 hour. Please refer to FIGS. 5 and 6. The green fluorescence (Dylight 488) indicated location of Survivin and cleaved-form Caspase 3. The blue fluorescence (Hoechst 33258) and red fluorescence (Cy3) represented nucleus and β-tubulin respectively. Treatment with 30 μM SP101 for 24 hours, Survivin protein expression was reduced; in addition, the apoptotic bodies and cleaved-form Caspase 3 protein were induced.

[3] = test system: A549 cells; experiment: Annexin V/PI apoptosis flow cytometry in A549 cells; format: cell-based, human; conditions: 30 μM for 24 hours
Experimental: At the end of treatment, apoptosis was measured by Annexin VPI staining using flow cytometry analysis. The population of Annexin V+/PI− cells represents cells undergoing early apoptosis (low right), whereas the fraction of Annexin V+/PI+ cell are those undergoing late apoptosis (upper right). The representative flow data were shown from one of three separate experiments with similar findings.
Please refer to FIG. 14. The expressions of phosphorylated EGFR and total EGFR proteins after treatment with SP101 (10˜40 μM for 24 hours) in the K-Ras mutation A549 cells were analyzed by Western blot. […] Please refer to FIG. 15. We further examined the apoptosis levels of SP101 in A549 cells by Annexin V and PI staining. The cells were trypsinized and then incubated with propidium iodide (5 μl) and Annexin V-FITC (5 μl) at room temperature for 5 min before flow cytometry.

[4] = biological target: T1, phosphorylated EGFR (Tyr 1068) (Homo sapiens, UniProt P00533, L858R/T790M); experiment: Western blot of phosphorylated EGFR and total EGFR in H1975 cells; format: cell-based; conditions: 20~30 μM for 24 hours
T1 construct: endogenous in cells; host or cells: H1975 (ATCC CRL-5908)
Experimental: EGFR binding cognate ligands may lead to autophosphorylation of receptor tyrosine kinase and subsequent activation of signal transduction pathways of cell survival. Besides, aberrant tyrosine kinase activation increases proliferation and drug resistance of malignant cells. Please refer to FIG. 3. H1975 cells were treated with 0˜30 μM of SP101 for 24 hours. The total protein extracts were prepared for Western blot analyses using specific antibodies, including rabbit anti-p-EGFR (Tyr1068), rabbit anti-EGFR and mouse anti-actin. Representative immunoblotting data were shown from one of three separate experiments with similar findings. Actin was an internal control protein.

[5] = 30 μM for 24 hours, immunofluorescence and confocal microscopy
[6] = 20~30 μM for 24 hours, Western blot

## CCCCCCCCCCCCOC(=O)CCC(=O)N1CCN(CCCOc2cc3c(Nc4ccc(F)c(Cl)c4)ncnc3cc2OC)CC1 [SP101, dodecyl 4-(4-(3-(4-(3-chloro-4-fluorophenylamino)-7-methoxyquinazolin-6-yloxy)propyl)piperazin-1-yl)-4-oxobutanoate]
[1]; during the treatment period
  body weight of the nude mice: did not alter
[1]; H1975 xenograft in nude mice, 16 days
  tumor growth: significantly inhibited
[1]; H1975 xenograft in nude mice, after sacrifice at 16 days, compared with Gefitinib
  tumor weight: more potent on the inhibition of tumor weight than Gefitinib
[2]; [5]
  Survivin protein expression: reduced
  apoptotic bodies and cleaved-form Caspase 3 protein: induced
[2]; [6]
  Survivin protein level: reduced
  apoptotic protein level of cleaved-form Caspase 3: induced
[3]
  levels of Annexin V+/PI− cells (early apoptosis) and Annexin V+/PI+ cells (late apoptosis): significantly increased
[4]
  phosphorylated EGFR (Tyr 1068) protein level: significantly reduced
  total EGFR protein level: did not inhibit

Source: patent publication US9980967B1, “Method for overcoming drug resistance of EGFR mutation and cancerous stemness of human non-small cell lung carcinoma” (NATIONAL CHIAO TUNG UNIVERSITY, priority 2017, dated 2018)
